Source: patent US20240390434A1, “PROBIOTIC ENHANCERS AND USES THEREOF” (Blis Technologies Limited, priority 2021, published 2024)

Experiments:
L. lactis T-21 = experiment: Dose response deferred antagonism assay, producer K12; type: cell-based
Procedure: (§1) 1-2 producer strain colonies were transferred from a stock plate into 900 μL of suspension solution using a fresh cotton swab. Following this, suspensions were vortexed, and a sample was inoculated onto solid culture media using a fresh cotton swab. The inoculation was a streak that runs diametrically across the agar plate in a 1.5 cm wide strip. The plate was then incubated. Following incubation all visible colonies were removed by swabbing them from the agar surface. The plates were then treated with chloroform by dispensing 2 ml of chloroform onto 4 cm×4 cm piece of cloth and sealing the inverted agar plate on top for 30 minutes. The plates were then air dried for 30 minutes following chloroforming. 1-2 indicator strain colonies were then transferred from a stock plate into complementary suspension solution. The suspensions were then vortexed, and a sample was inoculated onto the same agar surface. These samples were streaked in a perpendicular direction to the initial producer streak.
(§2) Each indicator streak was prepared with fresh a suspension containing cells from a corresponding stock plate containing the indicator strain of interest. Indicator strains suspension samples were transferred using a fresh cotton swab. Results were measured by qualitatively reviewing the subsequent (if any) sizes of the zones of inhibition (ZOI) of indicator strain colony growth. A positive result is when there is a distinctive reduction or complete inhibition of indicator colony growth on the culture medium.
(§3) CABCa agar plates containing various concentrations of saccharide were prepared according to the methods described in Method 1. Producer strains were transferred from stock agar plates into 900 μL THB using a fresh cotton swab. A plastic spread plater was cut to approximately 1.2 cm width and then dipped into ethanol and left to air dry to ensure sterility. A 100 μL sample of the producer strain suspension was then dispensed onto the agar surface in a straight line running diametrically across the agar surface in (approximately) 20 μL spots. The spots were spaced approximately 1.5 cm apart from each other. The plastic spreader was then used to evenly distribute the spots across the agar surface in a 1.5 cm wide strip. This step was taken to ensure an even producer streak was inoculated onto the agar surface and provided an approximate measure of the initial inoculum concentration. Separate plastic spreaders were used for samples containing different producer strains. The samples were left to soak into the agar surface until there was no visible liquid remaining on the agar surface (approximately 20 minutes). Following producer streak preparations, the deferred antagonism assay protocol was followed as per Method 2. Results were recorded by measuring the size of the zone of inhibition (ZOI) in mm.
(§4) The results presented in FIG. 1 and FIG. 2 illustrate the change in ear, nose, and throat (ENT) microorganism indicator strain zone of inhibition sizes. When K12 was cultured in the presence of various concentrations of galactose the ZOI sizes for several of the ENTR indicator strains increased markedly from the control condition (FIG. 1). M. catarrhalis TW1 and TW2 display similar changes in the ZOI sizes across the various concentrations of galactose. The change in TW1 ZOI size peaks at 1.5% galactose(w/v) (12 mm) then decreases at 2.0% galactose (w/v), whereas the change of TW2 ZOI size peaks at 2.0% galactose (w/v) (11 mm). The change in L. lactis T-21 ZOI sizes trend upwards relative to the concentration of galactose present in the culture medium.

M. catarrhalis TW2 = experiment: as above; type: cell-based; settings: peak
Procedure: as §1, §2, §3, §4

S. pyogenes M76 = experiment: as above; type: cell-based
Procedure: as §1, §2, §3, §4

salA = experiment: qPCR relative gene expression in K12 grown on CABCa agar; type: cell-based, S. salivarius K12
Procedure: (§5) Method: CABCa agar plates were prepared either with or without 2.5% w/w raffinose, 0.5% w/w galactose, combined 2.5% w/w raffinose and 0.5% w/w galactose, 0.5% w/w glucose or 2.5% w/w glucose by the addition of 0.5% (w/v) calcium carbonate to solid CAB agar in bottles and then melted by autoclaving at 110° C. for 10 mins. Once cooled, filter sterilised solutions of the saccharides or distilled water were added and mixed and then 20 ml pipetted into petri dishes.
(§6) A S. salivarius K12 raw ingredient suspension was prepared in PBS containing approx. 1×10^8cfu/ml. […] of this suspension was spread evenly onto control and test agar plates. Plates were incubated at 37° C. with 5% CO2 for approx, 19 hrs.
(§7) Bacterial growth from each plate was collected using a sterile cotton swab and resuspended into 1 ml PBS in a screw capped tube. The bacterial cells were then pelleted by centrifugation at 13,000 rpm for 1 minute at 4° C. The supernatant was removed, and the cell pellet was resuspended in 1 ml of TRIzol reagent. The bacterial cell suspension was transferred into a 2 ml screw-capped tube containing 0.1 mm Zirconia/silicon beads. These tubes were then vortexed for 5 minutes at the highest speed to bead beat the bacterial cells to lyse them. The tubes were placed on ice for 1 minute and then re-bead beated again on the vortex for 5 minutes. The tubes were then frozen at −20° C.
(§8) The cDNA samples from K12 raw ingredient grown on the CABCa control plates and CABCa supplemented with the various saccharides were then analysed by qPCR for the levels of gene expression of the following genes: salA, salB, salQ and ureC.
(§9) 10 μl qPCR reactions were prepared containing 2 μl of cDNA, 5 μl SYBR green master mix, 0.5 μl forward primer, 0.5 μl reverse primer and nuclease free water up to 10 μl. The dilution of cDNA in each qPCR was optimised with each primer set.
(§10) qPCR method consisted of the following cycles: Hold Stage: 2 mins at 50° C. followed by 10 mins at 95° C.; PCR Stage: 15 secs at 95° C. followed by 1 min at 60° C.; Melt Curve Stage: 15 secs at 95° C. followed by 1 min at 60° C. followed by 15 secs at 95° C.
(§11) To analyse the relative expression levels the 2^−ΔΔCt method was used to determine the relative fold gene expression level comparing the different sugars to a CABCa plate control. The reference gene used for this analysis was gyrA.

salQ = experiment: as above; type: cell-based, S. salivarius K12
Procedure: as §5, §6, §7, §8, §9, §10, §11

ureC = experiment: as above; type: cell-based, S. salivarius K12
Procedure: as §5, §6, §7, §8, §9, §10, §11

[1] = tested on: S. pyogenes strains or other pathogens; experiment: Inhibitory activity of K12 grown in M17 broth with saccharides; type: cell-based; settings: saccharide 0.83% or 2.5% w/v, vs control

Row | SMILES | change in L. lactis T-21 ZOI sizes (L. lactis T-21; relative to the concentration of galactose) | change of TW2 ZOI size (M. catarrhalis TW2; 2.0% galactose (w/v)) | change in M76 ZOI size (S. pyogenes M76; between 1.5% and 2.0% galactose) | increase in gene expression of salA relative to no sugar control (salA; 0.5% w/w sugar in CABCa agar) | salQ upregulated relative to a no sugar control (salQ; 0.5% w/w sugar in CABCa agar) | upregulation in urease (ureC) expression (ureC; 0.5% w/w sugar in CABCa agar) | inhibitory activity of K12 grown in presence of saccharide [1] | change in L. lactis ZOI size (L. lactis T-21; 0.1% raffinose (w/v)) | change in L. lactis ZOI size (L. lactis T-21; 1.0% raffinose (w/v)) | change in ZOI size M. catarrhalis TW2 (M. catarrhalis TW2; 2.0% (w/v) raffinose) | change in ZOI size for S. pyogenes M76 (S. pyogenes M76; 1.5% raffinose (w/v), peak) | increase in gene expression of salA relative to no sugar control (salA; 2.5% w/w sugar in CABCa agar) | salQ upregulated relative to a no sugar control (salQ; 2.5% w/w sugar in CABCa agar) | upregulation in urease (ureC) expression (ureC; 2.5% w/w sugar in CABCa agar)
1 | O=C[C@H](O)[C@@H](O)[C@@H](O)[C@H](O)CO [Galactose, D-galactose] | trend upwards | 11 mm | 11 mm | ~12000 fold | 205 fold | 224 fold | greater inhibitory activity | – | – | – | – | – | – | –
2 | OC[C@H]1O[C@H](OC[C@H]2O[C@H](O[C@]3(CO)O[C@H](CO)[C@@H](O)[C@@H]3O)[C@H](O)[C@@H](O)[C@@H]2O)[C@H](O)[C@@H](O)[C@H]1O [Raffinose, D-(+) Raffinose pentahydrate] | – | – | – | – | – | – | greater inhibitory activity | 15 mm | 16 mm | 13 mm | 13 mm | ~5000 fold | 93 fold | 234 fold
